Assay results published in patent publication US12186306B2, “Methods of treatment for cystic fibrosis” (Vertex Pharmaceuticals Incorporated, priority 2020, dated 2025).
Where a name gives a salt, the structure may show the parent alone. Blank lines part the entries; values can stand above or below the compound they belong to.

Assays:
[1] = Relative stability of solid (polymorphic) forms of Compound II; format: physicochemical
[2] = Comparison of calcium salt hydrate forms: dissolution, solubility, exposure; format: physicochemical; conditions: than the other calcium salt hydrate forms
[3] = tested on: subjects with gating mutations; test: Clinical trial: absolute change in SwCl at 12 weeks in subjects with gating mutations on stable ivacaftor treatment; safety and tolerability; format: in vivo, human; conditions: for Absolute change in SwCl at Week 12: LS mean (SE): subjects with gating mutations
Experimental: In a clinical trial, a comparative study was conducted on absolute changes in SwCl at 12 weeks in subjects with gating mutations where were on stable treatment with ivacaftor.

- Polymorphic form stability ([1]; in IPA/water at water activity 0.1-0.95 from ambient temperature to 60° C.): most stable polymorphic form
- Stability among calcium salt hydrate forms ([1]; under certain conditions, such as in mixtures of ethanol and water): most stable form of calcium salt hydrate
SMILES: CC1(C)C[C@@H]2CCCNc3cccc(n3)S(=O)(=O)NC(=O)c3ccc(-n4ccc(OCCC5C6(CC6)C56CC6)n4)nc3N1C2 [Compound II calcium salt hydrate Form D, (14S)-8-[3-(2-{Dispiro[2.0.2.1]heptan-7-yl}ethoxy)-1H-pyrazol-1-yl]-12,12-dimethyl-2λ6-thia-3,9,11,18,23-pentaazatetracyclo[17.3.1.111,14.05,10]tetracosa-1(22),5,7,9,19(23),20-hexaene-2,2,4-trione]

- Dissolution [2]: higher
- Exposure [2]: higher
- Solubility [2]: higher
SMILES: CC1(C)C[C@@H]2CCCNc3cccc(n3)S(=O)(=O)NC(=O)c3ccc(-n4ccc(OCCC5C6(CC6)C56CC6)n4)nc3N1C2 [Compound II calcium salt hydrate Form A, (14S)-8-[3-(2-{Dispiro[2.0.2.1]heptan-7-yl}ethoxy)-1H-pyrazol-1-yl]-12,12-dimethyl-2λ6-thia-3,9,11,18,23-pentaazatetracyclo[17.3.1.111,14.05,10]tetracosa-1(22),5,7,9,19(23),20-hexaene-2,2,4-trione]
- Kinetic preference among calcium salt hydrate forms [1]: most kinetically favored calcium salt hydrate form

SMILES: CC(C)(C)c1cc(C(C)(C)C)c(NC(=O)c2c[nH]c3ccccc3c2=O)cc1O [Ivacaftor, reference compound]
- Absolute change in SwCl at Week 12: LS mean (SE) ([3]; 150 mg q12h, N = 11, week 12): 0.9

- Polymorphic form stability ([1]; water activity ≤0.95 at ambient temperature): most stable polymorphic form
SMILES: CC1(C)C[C@@H]2CCCNc3cccc(n3)S(=O)(=O)NC(=O)c3ccc(-n4ccc(OCCC5C6(CC6)C56CC6)n4)nc3N1C2 [Compound II free Form A, (14S)-8-[3-(2-{Dispiro[2.0.2.1]heptan-7-yl}ethoxy)-1H-pyrazol-1-yl]-12,12-dimethyl-2λ6-thia-3,9,11,18,23-pentaazatetracyclo[17.3.1.111,14.05,10]tetracosa-1(22),5,7,9,19(23),20-hexaene-2,2,4-trione]

SMILES: [2H]C([2H])([2H])C(c1cc(C(C)(C)C)c(NC(=O)c2c[nH]c3ccccc3c2=O)cc1O)(C([2H])([2H])[2H])C([2H])([2H])[2H] [Compound I, N-(2-(tert-butyl)-5-hydroxy-4-(2-(methyl-d3)propan-2-yl-1,1,1,3,3,3-d6)phenyl)-4-oxo-1,4-dihydroquinoline-3-carboxamide]
- Safety and tolerability ([3]; 150 mg and 250 mg for 12 weeks): generally safe and well tolerated
- SwCl compared to ivacaftor baseline ([3]; 150 mg dose, week 12): decrease in SwCl
- Absolute change in SwCl at Week 12: LS mean difference vs Ivacaftor ([3]; 150 mg qd vs ivacaftor 150 mg q12h, week 12): 2.4
- Absolute change in SwCl at Week 12: LS mean (SE) ([3]; 150 mg qd, N = 23, week 12): 3.3
- SwCl at week 12 compared to the ivacaftor baseline ([3]; 250 mg dose): improvement in SwCl
- Absolute change in SwCl at Week 12: LS mean difference vs Ivacaftor ([3]; 250 mg qd vs ivacaftor 150 mg q12h, week 12): −7.3
- Absolute change in SwCl at Week 12: LS mean (SE) ([3]; 250 mg qd, N = 24, week 12): −6.5
